Measurements as given in patent US20250025490A1, “INDUCTION OF TRAINED IMMUNITY FOR THE TREATMENT OF HYPERPROLIFERATIVE DISORDERS” (priority 2021, published 2025).

Tests used:
peritoneal macrophages [1] = assay: In vitro training and re-stimulation of peritoneal macrophages (Example 2), TNF-α ELISA; assay type: cell-based, mice; details: Mdivi-1 10 μM
Experimental: Isolation and culture of peritoneal macrophages. Mice were euthanized with CO2 inhalation and injected i.p. with 5 ml of sterile cold, complete DMEM medium (Sigma Aldrich) followed by gentle massage of the peritoneum. The peritoneal fluid was then collected, centrifuged at 1600 rpm for 5 min. The cell pellet was washed, counted, and plated at appropriate numbers in complete DMEM. The cells were incubated for 2-4 hours at 37° C. and 5% CO2 to allow peritoneal macrophages attached to the plates. The floating cells were aspirated and plates were gently washed with sterile pre-warmed medium and then added with fresh complete DMEM. For comparison studies between different mouse strains, peritoneal cells were stained with viability dye and anti-F4/80 antibodies (Biolegend) and F4/80^+ macrophages were sorted by FACS Aria III (BD Bioscience).
In vitro training and re-stimulation of peritoneal macrophages. Peritoneal macrophages were treated with 25 μg/ml of WGP or polystyrene beads (3 μm, Sigma-Aldrich) and incubated for 24 h at 37°° C. with 5% CO2. Macrophages were then washed with pre-warmed complete DMEM at least twice to remove excess WGP or polystyrene beads, added with fresh complete DMEM and incubated 6 days. On day 7, macrophages were re-stimulated with different stimuli such as LPS (10 ng/ml) (Sigma), tumor cells, tumor cell culture supernatants (40%) or rMIF (100 ng/ml) (kindly provided by Dr. Robert Mitchell) for 24 h. The culture supernatants were harvested and assayed for TNF-α by ELISA. For cell culture supernatants, tumor cell lines including LLC, B16F10, and EL4, and control cell line MLE-12 were used.
These cell lines were cultured (1 million/4 ml complete DMEM) in a 6-well plate and incubated for 72 h. The supernatants were harvested and stored at −80° C. in aliquots.
ELISA for TNF-α and MIF. TNF-α in the culture supernatants was measured using TNF-α ELISA kit (Biolegend) and MIF levels in the culture supernatants were quantified using mouse MIF ELISAkit (R&D Systems) per the manufacturer's instruction.
In vitro training with S1P. Peritoneal macrophages were stimulated with 200 nM or 300 nM of S1P for 24 h at 37° C. and 5% CO2. The macrophages were then washed and allowed for resting. On day 7, the macrophages were stimulated with LPS (10 ng/ml) or LLC culture supernatant (40%) for 24 h and the supernatants were collected for the quantification of TNF-α using ELISA. For another set of in vitro-training experiment, macrophages were trained with S1P in the presence of Mdivi-1 (10 μM) during S1P training and throughout the resting period. Cells were restimulated with LPS and the supernatants were collected to determine TNF-α levels by ELISA.
[…] The inhibitors were further added to the macrophage cultures and incubated at 37° C. and 5% CO2 for 6 more days. On day 7, the macrophages were washed once with pre-warmed complete DMEM and added LPS (10 ng/ml) or LLC culture supernatant (40%) for re-stimulation.

peritoneal macrophages [2] = assay: Mitochondrial ROS quantitation (MitoSox Red); assay type: cell-based, mice; details: Mdivi-1 50 μM and 75 μM
Experimental: Mitochondrial ROS quantitation. Peritoneal macrophages were treated with WGP or S1P in the presence or absence of Mdivi-1 and incubated at 37° C. with 5% CO2 for 24 h. The cells were then harvested, washed with PBS and pelleted by centrifugation at 1600 rpm for 5 min at room temperature. The pellets were then stained with MitoSOX Red dye (5 μM) (Invitrogen) at 37° C. for 15 min. The cells were washed with pre-warmed HBSS followed by another wash with PBS at room temperature. The cells were then stained with viability dye and anti-F4/80 and then acquired by flow cytometry. Flow cytometry for p-Drp-1. Peritoneal macrophages were treated with WGP (25 μg/ml) or S1P (1 μM) and incubated at 37° C. with 5% CO2 for 3-4 h. Following the completion of incubation, the cells were quickly washed with cold PBS to stop the activation. The cells were harvested and washed with PBS. The cells were then fixed with 4% formaldehyde for 15 min at room temperature, washed with PBS and permeabilized using ice-cold 100% methanol on ice for a minimum of 10 min. The cells were then stained with primary antibody (p-Drp1) (Cell Signaling) for 1 hour at room temperature followed by secondary antibody (Anti-rabbit IgG) (Biolegend) for 30 min at room temperature as instructed in the Cell Signaling phospho-stain protocol and analyzed using flow cytometry.

SMILES: COc1cc(-n2c(=S)[nH]c3ccccc3c2=O)c(Cl)cc1Cl [Mdivi-1]
- effect on S1P-induced trained immunity (TNF-α) (peritoneal macrophages [1]; LPS): abrogated S1P-induced trained immunity
- effect on WGP-mediated trained responses (TNF-α) (peritoneal macrophages [1]; LPS or LLC supernatants): abrogated WGP-mediated trained responses
- effect on WGP-mediated mtROS production (peritoneal macrophages [2]): abrogated WGP-mediated mtROS production
